Reference: US20050250725A1, “Regulation of the P21 gene and uses thereof” (priority 2000, published 2005)

Legend:
renal p21 expression = test: Renal p21 expression after cisplatin administration; type: in vivo
Description: The present invention examined the effect of p21 in protecting the renal function from cisplatin induced damage. An increase in renal p21 expression was observed after ischemia-reperfusion, urinary tract obstruction and cisplatin administration (FIG. 7). Further, to assess the significance of p21 in renal function, blood urea nitrogen was measured in mice with and without p21 gene subsequent to cisplatin administration. It was observed that the blood urea nitrogen for mice lacking the p21 gene was retained to a higher degree than the mice with p21 gene (FIG. 8).

renal cells = type: cell-based
Description: Percent apoptosis is also indicated.
Next, the cytoprotective effect of histone deacetylase inhibitors such as phenylbutyrate on renal cells was examined. Cells were control cells, or exposed to cisplatin (50 uM) alone, to phenylbutyrate (100 uM) or to phenybutyrate and cisplatin.

| Compound | renal p21 expression (renal p21 expression) | protection from cisplatin-induced apoptosis (renal cells; prior exposure to phenylbutyrate, then cisplatin) | distribution of DNA (renal cells; renal cells exposed to phenylbutyrate 100 uM and cisplatin 50 uM) |
| --- | --- | --- | --- |
| N.N.[Cl][Pt][Cl] [cisplatin] | increase | – | – |
| phenylbutyrate | – | protected from apoptosis | normal distribution of DNA |
